Assay results: PubChem BioAssay AID2060599 (Molecular Pharmacology Branch, DTP, NCI, 2025)
pIC50: −log10 of the molar value. “And” between values parts separate entries of the source, which are not always exact repeats. Equal values may be shown once. Values belong to the compound of their own block, whether it stands above or below them.

Tested on: 817829-284-R-J1-PDC complex spheroids, viability
Test: Anticancer human tumor 817829-284-R-J1-PDC patient-derived colon adenocarcinoma cell line growth inhibition [CLK]
Settings: for viability, T/C: stronger effect = lower value
In short: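 Multi-cell-type spheroids combined patient-derived tumor cells with HUVEC endothelial cells and human mesenchymal stem cells. Paired agents were dosed in half-log steps down from about clinical Cmax, or from 10 microM where Cmax was unknown.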

[1] = curve of first compound, second compound 0.0316 µM
[2] = curve of first compound, second compound 0.1 µM
[3] = curve of first compound, second compound 0.316 µM
[4] = curve of first compound, second compound 1 µM
[5] = curve of first compound, second compound 3.16 µM
[6] = curve of first compound, second compound 10 µM
[7] = second compound 0.0316 µM, first compound 0.0316 µM
[8] = second compound 0.0316 µM, first compound 0.1 µM
[9] = second compound 0.0316 µM, first compound 0.316 µM
[10] = second compound 0.0316 µM, first compound 1 µM
[11] = second compound 0.0316 µM, first compound 3.16 µM
[12] = second compound 0.0316 µM, first compound 10 µM
[13] = second compound 0.1 µM, first compound 0.0316 µM
[14] = second compound 0.1 µM, first compound 0.1 µM
[15] = second compound 0.1 µM, first compound 0.316 µM
[16] = second compound 0.1 µM, first compound 1 µM
[17] = second compound 0.1 µM, first compound 3.16 µM
[18] = second compound 0.1 µM, first compound 10 µM
[19] = second compound 0.316 µM, first compound 0.0316 µM
[20] = second compound 0.316 µM, first compound 0.1 µM
[21] = second compound 0.316 µM, first compound 0.316 µM
[22] = second compound 0.316 µM, first compound 1 µM
[23] = second compound 0.316 µM, first compound 3.16 µM
[24] = second compound 0.316 µM, first compound 10 µM
[25] = second compound 1 µM, first compound 0.0316 µM
[26] = second compound 1 µM, first compound 0.1 µM
[27] = second compound 1 µM, first compound 0.316 µM
[28] = second compound 1 µM, first compound 1 µM
[29] = second compound 1 µM, first compound 3.16 µM
[30] = second compound 1 µM, first compound 10 µM
[31] = second compound 3.16 µM, first compound 0.0316 µM
[32] = second compound 3.16 µM, first compound 0.1 µM
[33] = second compound 3.16 µM, first compound 0.316 µM
[34] = second compound 3.16 µM, first compound 1 µM
[35] = second compound 3.16 µM, first compound 3.16 µM
[36] = second compound 3.16 µM, first compound 10 µM
[37] = second compound 10 µM, first compound 0.0316 µM
[38] = second compound 10 µM, first compound 0.1 µM
[39] = second compound 10 µM, first compound 0.316 µM
[40] = second compound 10 µM, first compound 1 µM
[41] = second compound 10 µM, first compound 3.16 µM
[42] = second compound 10 µM, first compound 10 µM
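Further: spheroids exposed to the agents for seven days before readout.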

Structure (SMILES): COC1C=CCC(C)C(C)S(=O)(=O)NC(=O)c2ccc3c(c2)N(CC2CCC21)CC1(CCCc2cc(Cl)ccc21)CO3 (stereo not drawn) + CN1CCN(c2cc(C(=O)Nc3cc4cc(-c5cnn(C)c5)ccc4cn3)ccn2)CC1
pIC50 [1]: 5.85 | pIC50 [2]: > 7.50 | pIC50 [3]: > 7.50 | pIC50 [4]: > 7.50 | pIC50 [5]: > 7.50 | pIC50 [6]: > 7.50 | viability, T/C [7]: 52.5% | viability, T/C [8]: 70% | viability, T/C [9]: 51.2% | viability, T/C [10]: 63.3% | viability, T/C [11]: 28.2% | viability, T/C [12]: 7.26% | viability, T/C [13]: 21.4% | viability, T/C [14]: 18.1% | viability, T/C [15]: 16.3% | viability, T/C [16]: 12.3% | viability, T/C [17]: 5.31% | viability, T/C [18]: 2.6% | viability, T/C [19]: 1.91% | viability, T/C [20]: 1.47% | viability, T/C [21]: 1.45% | viability, T/C [22]: 1.31% | viability, T/C [23]: 1.5% | viability, T/C [24]: 0.95% | viability, T/C [25]: 0.08% | viability, T/C [26]: 0.21% | viability, T/C [27]: 0.16% | viability, T/C [28]: 0.07% | viability, T/C [29]: 0.35% | viability, T/C [30]: 0.05% | viability, T/C [31]: 0.15% | viability, T/C [32]: 0.16% | viability, T/C [33]: 0.23% | viability, T/C [34]: 0.46% | viability, T/C [35]: 0.28% | viability, T/C [36]: 0.08% | viability, T/C [37]: 0.48% | viability, T/C [38]: 0.13% | viability, T/C [39]: 0.19% | viability, T/C [40]: 0.31% | viability, T/C [41]: 0.37% | viability, T/C [42]: 0.17%

pIC50 (curve of compound): 5.85 and 6.08
Structure (SMILES): CC(Nc1ccc2c(c1)OCCn1cc(N3C(=O)OCC3C(F)F)nc1-2)C(N)=O (stereo not drawn)
viability, T/C (compound 0.0316 µM): 62.2% and 116% | viability, T/C (compound 0.1 µM): 92% and 69.5% | viability, T/C (compound 0.316 µM): 72.2% and 60.7% | viability, T/C (compound 1 µM): 51.6% and 59.1% | viability, T/C (compound 3.16 µM): 52.4% and 39.5% | viability, T/C (compound 10 µM): 35.8% and 37.7%

pIC50 (curve of compound): 8.47 and 7.65
Structure (SMILES): Cn1ncnc1[C@H]1c2n[nH]c(=O)c3cc(F)cc(c23)N[C@@H]1c1ccc(F)cc1
viability, T/C (compound 0.000316 µM): 65.2% and 92.2% | viability, T/C (compound 0.001 µM): 93.3% and 76.2% | viability, T/C (compound 0.00316 µM): 50.8% and 73.8% | viability, T/C (compound 0.01 µM): 48.2% and 62.2% | viability, T/C (compound 0.0316 µM): 34.8% and 42% | viability, T/C (compound 0.1 µM): 33.3% and 35.4%

Structure (SMILES): CC(CO)NC(=O)c1cc(-c2ccc(Cl)cc2)nn(-c2cnn(C)c2)c1=O (stereo not drawn) + CN1CCN(c2cc(C(=O)Nc3cc4cc(-c5cnn(C)c5)ccc4cn3)ccn2)CC1
pIC50 [1]: 5.42 | pIC50 [2]: > 7.50 | pIC50 [3]: > 7.50 | pIC50 [4]: > 7.50 | pIC50 [5]: > 7.50 | pIC50 [6]: > 7.50 | viability, T/C [7]: 62.9% | viability, T/C [8]: 71.7% | viability, T/C [9]: 61.2% | viability, T/C [10]: 78.3% | viability, T/C [11]: 53.1% | viability, T/C [12]: 33% | viability, T/C [13]: 18.3% | viability, T/C [14]: 15.8% | viability, T/C [15]: 16.9% | viability, T/C [16]: 15.6% | viability, T/C [17]: 15.4% | viability, T/C [18]: 14.6% | viability, T/C [19]: 2.63% | viability, T/C [20]: 2.2% | viability, T/C [21]: 2.62% | viability, T/C [22]: 2.67% | viability, T/C [23]: 2.25% | viability, T/C [24]: 2.13% | viability, T/C [25]: 0.11% | viability, T/C [26]: 0.12% | viability, T/C [27]: 0.15% | viability, T/C [28]: 0.11% | viability, T/C [29]: 0.11% | viability, T/C [30]: 0.13% | viability, T/C [31]: 0.18% | viability, T/C [32]: 0.27% | viability, T/C [33]: 0.22% | viability, T/C [34]: 0.18% | viability, T/C [35]: 0.29% | viability, T/C [36]: 0.19% | viability, T/C [37]: 0.11% | viability, T/C [38]: 0.14% | viability, T/C [39]: 0.17% | viability, T/C [40]: 0.21% | viability, T/C [41]: 0.23% | viability, T/C [42]: 0.19%
